Measurements published in patent US20240074990A1 (priority 2022, published 2024).
Several values for one entry are separate records, joined by “and”; a condition that tells them apart may be missing. Equal entries are not always repeated. Entries after “also recorded” stand apart in the source; their conditions may differ. Where two headings read alike, the source gives them in different places.

Experiments:
SARS-CoV-2 3CL protease = SARS-CoV-2 3CL protease (Severe acute respiratory syndrome coronavirus 2, UniProt P0DTD1); test: In-vitro enzyme activity inhibition test on SARS-CoV-2 3CL protease (fluorescence resonance energy transfer method); type: biochemical; conditions: for inhibitory activity on SARS-CoV-2 3CL proteases (in words): statement in words
SARS-CoV 3CL protease = SARS-CoV 3CL protease (Severe acute respiratory syndrome coronavirus, UniProt P0C6X7); test: biochemical; conditions: for IC50: FRET, three parallel tests; for inhibitory activity on SARS-CoV 3CL proteases (in words): statement in words
[1] = 1 μM compound, parallel tests 1, 2, 3, 1 µM
[2] = 5 μM compound, parallel tests 1, 2, 3, 5 µM
[3] = 10 μM compound, parallel tests 1, 2, 3, 10 µM
[4] = 20 μM compound, parallel tests 1, 2, 3, 20 µM
[5] = 30 μM compound, parallel tests 1, 2, 3, 30 µM
[6] = 50 μM compound, parallel tests 1, 2, 3, 50 µM
[7] = 100 μM compound, parallel tests 1, 2, 3, 100 µM
[8] = IC50, SARS-CoV-2 3CL protease, FRET, three parallel tests
[9] = 0.1 μM compound, parallel tests 1, 2, 3, 0.1 µM
[10] = 0.5 μM compound, parallel tests 1, 2, 3, 0.5 µM
[11] = read-out: inhibition percentage, 1 μM compound, parallel tests 1, 2, 3
[12] = read-out: inhibition percentage, 5 μM compound, parallel tests 1, 2, 3
[13] = read-out: inhibition percentage, 10 μM compound, parallel tests 1, 2, 3
[14] = read-out: inhibition percentage, 20 μM compound, parallel tests 1, 2, 3
[15] = read-out: inhibition percentage, 30 μM compound, parallel tests 1, 2, 3
[16] = read-out: inhibition percentage, 50 μM compound, parallel tests 1, 2, 3
[17] = read-out: inhibition percentage, 100 μM compound, parallel tests 1, 2, 3

Compound | inhibition percentage (SARS-CoV-2 3CL protease; [1]) | inhibition percentage (SARS-CoV-2 3CL protease; [2]) | inhibition percentage (SARS-CoV-2 3CL protease; [3]) | inhibition percentage (SARS-CoV-2 3CL protease; [4]) | inhibition percentage (SARS-CoV-2 3CL protease; [5]) | inhibition percentage (SARS-CoV-2 3CL protease; [6]) | inhibition percentage (SARS-CoV-2 3CL protease; [7]) | IC50 (SARS-CoV-2 3CL protease; [8]) [µM] | inhibitory activity on SARS-CoV-2 3CL proteases (in words) (SARS-CoV-2 3CL protease) | inhibition percentage (SARS-CoV 3CL protease; [1]) | inhibition percentage (SARS-CoV 3CL protease; [2]) | inhibition percentage (SARS-CoV 3CL protease; [3]) | inhibition percentage (SARS-CoV 3CL protease; [4]) | inhibition percentage (SARS-CoV 3CL protease; [5]) | inhibition percentage (SARS-CoV 3CL protease; [6]) | inhibition percentage (SARS-CoV 3CL protease; [7]) | IC50 (SARS-CoV 3CL protease; IC50, SARS-CoV 3CL protease) | inhibitory activity on SARS-CoV 3CL proteases (in words) (SARS-CoV 3CL protease) | further results
Cc1cc2c(C(C)C)c(O)c(O)c(C=O)c2c(O)c1-c1c(C)cc2c(C(C)C)c(O)c(O)c(C=O)c2c1O (single isomer, unassigned) [(+)- gossypol, (+)-gossypol] | 2.45 and 3.18 and 3.87 | 5.69 and 7.88 and 9.54 | 9.43 and 11.87 and 14.87 | 18.73 and 20.90 and 22.44 | 25.21 and 28.43 and 29.13 | 36.55 and 40.32 and 38.72 | 58.34 and 61.83 and 55.88 | 75.2 ± 1.88 | all have inhibitory activity | 3.96 and 4.54 and 5.87 | 11.58 and 9.88 and 13.43 | 19.12 and 16.53 and 20.66 | 22.9 and 26.42 and 30.76 | 28.14 and 30.43 and 38.33 | 45.56 and 48.42 and 51.33 | 72.33 and 62.28 and 74.43 | 51.6 ± 1.71 µM | all have inhibitory activity | –
Cc1cc2c(C(C)C)c(O)c(O)c(C=O)c2c(O)c1-c1c(C)cc2c(C(C)C)c(O)c(O)c(C=O)c2c1O (single isomer, unassigned) [(−)- gossypol, (−)-gossypol] | 31.43 and 32.87 and 34.65 | 52.19 and 48.98 and 56.91 | 71.90 and 65.43 and 69.78 | 82.54 and 75.44 and 83.47 | 90.45 and 83.21 and 91.45 | 96.88 and 90.68 and 95.87 | 99.23 and 96.73 and 98.44 | < 10 | all have inhibitory activity; also recorded: excellent inhibitory activity | 43.78 and 40.92 and 50.01 | 64.32 and 58.9 and 67.22 | 77.32 and 72.54 and 73.76 | 86.43 and 78.13 and 85.43 | 91.83 and 87.54 and 90.32 | 98.42 and 92.10 and 97.54 | 99.74 and 98.12 and 99.53 | 1.79 µM and < 10 µM | all have inhibitory activity; also recorded: excellent inhibitory activity | inhibition percentage (SARS-CoV-2 3CL protease; [9]): 12.83 and 10.83 and 14.77; inhibition percentage (SARS-CoV-2 3CL protease; [10]): 20.99 and 19.88 and 22.88; IC50 (SARS-CoV-2 3CL protease; IC50): 2.97 ± 0.473 µM; inhibition percentage (SARS-CoV 3CL protease; [9]): 13.11 and 10.83 and 15.87; inhibition percentage (SARS-CoV 3CL protease; [10]): 24.54 and 21.88 and 30.26
CC(=O)O.Cc1cc2c(C(C)C)c(O)c(O)c(C=O)c2c(O)c1-c1c(C)cc2c(C(C)C)c(O)c(O)c(C=O)c2c1O [Acetate gossypol, acetate gossypol] | 24.71 and 17.94 and 30.17 | 37.81 and 34.61 and 43.51 | 59.14 and 50.87 and 63.21 | 72.87 and 63.41 and 76.32 | 85.31 and 73.94 and 84.81 | 90.17 and 82.76 and 91.83 | 95.41 and 89.67 and 97.16 | – | all have inhibitory activity; also recorded: excellent inhibitory activity | 26.61 and 19.97 and 32.84 | 41.15 and 36.26 and 45.91 | 62.48 and 52.56 and 65.81 | 75.14 and 65.81 and 78.97 | 86.61 and 76.15 and 87.62 | 93.52 and 85.63 and 94.62 | 97.81 and 91.32 and 98.71 | – | all have inhibitory activity; also recorded: excellent inhibitory activity | IC50 (SARS-CoV-2 3CL protease; SARS-CoV-2 3CL protease, FRET, three parallel tests, read-out: IC50): 6.09 ± 0.784 µM; IC50 (SARS-CoV 3CL protease; SARS-CoV 3CL protease, read-out: IC50): 5.16 ± 0.712 µM
Cc1cc2c(C(C)C)c(O)c(O)c(C=O)c2c(O)c1-c1c(C)cc2c(C(C)C)c(O)c(O)c(C=O)c2c1O [Gossypol, gossypol] | 16.13 and 28.41 | 33.24 and 41.67 | 49.17 and 61.32 | 61.34 and 74.52 | 72.15 and 83.12 | 81.17 and 90.16 | 87.84 and 95.27 | 6.91 ± 0.839 | all have inhibitory activity; also recorded: excellent inhibitory activity | 18.54 and 31.50 | 35.68 and 44.78 | 51.33 and 64.31 | 64.56 and 77.58 | 75.44 and 86.42 | 84.12 and 93.41 | 90.09 and 98.44 | 5.43 ± 0.734 µM | all have inhibitory activity; also recorded: excellent inhibitory activity | inhibition at 1 µM (SARS-CoV-2 3CL protease; [11]): 22.9%; inhibition at 5 µM (SARS-CoV-2 3CL protease; [12]): 36.2%; inhibition at 10 µM (SARS-CoV-2 3CL protease; [13]): 57.4%; inhibition at 20 µM (SARS-CoV-2 3CL protease; [14]): 71.2%; inhibition at 30 µM (SARS-CoV-2 3CL protease; [15]): 83.7%; inhibition at 50 µM (SARS-CoV-2 3CL protease; [16]): 88.4%; inhibition at 100 µM (SARS-CoV-2 3CL protease; [17]): 93.2%; inhibition at 1 µM (SARS-CoV 3CL protease; [11]): 25.6%; inhibition at 5 µM (SARS-CoV 3CL protease; [12]): 40.4%; inhibition at 10 µM (SARS-CoV 3CL protease; [13]): 61.2%; inhibition at 20 µM (SARS-CoV 3CL protease; [14]): 75%; inhibition at 30 µM (SARS-CoV 3CL protease; [15]): 85.1%; inhibition at 50 µM (SARS-CoV 3CL protease; [16]): 92.1%; inhibition at 100 µM (SARS-CoV 3CL protease; [17]): 96.3%
